Experimental data published in PMC4104029, “Mechanism of Action of Compound-13: An α1-Selective Small Molecule Activator of AMPK” (Chemistry & Biology, 2014).

Biological target: T1, GST-AMPKγ2 subunit fusion (Homo sapiens, UniProt Q9UGJ0)
T1 construct: A C-terminal fragment of AMPKγ2 bearing CBS domains 1-4 (247-569) was expressed in; made in house; host or cells: E. coli
Experiment: Competitive elution of AMPKγ2 from ATP-Sepharose
Assay type: binding
Settings: C2 and AMP to the same extent
Protocol: Supplemental Figure Legends:
Figure S1, related to Figures 1-3. Subunit composition of AMPK preparations used in this study. (A) Heterotrimeric AMPK complexes (10 ng) produced in both Sf9 (Sigma and Signalchem) and E.coli (in our laboratory) were analysed by Western blotting using isoform specific antibodies. Note that both the α2/α1-HOOK and α2/α1-LOOP chimeras are no longer recognised by the anti-α2 antibody as the epitope has been replaced (see Fig S4). (B) Heterotrimeric AMPK α2/α1 chimeric complexes expressed in E.coli (2 μg) were separated by SDS-PAGE and stained with Coomassie G-250. Arrows indicate the position of the […]
Figure S2, related to Figure 1. C2 has negligible effects on a panel of 138 protein kinases.
Kinase inhibition screen was performed by the International Centre for Kinase profiling (Dundee). Assays were performed in duplicate using 10 µM C2 and are representative of two independent screens. Results are shown in rank order as mean % activity compared with controls in the absence of compound ± SD. […]
Figure S3, related to Figure 2. […] Results are expressed as mean Pi incorporated in nmol.min-1.mg-1 ± SD. […] Results are expressed as fold increase in activity relative to controls in the absence of compound ± SD.
(E) C2 and AMP displace a GST-AMPKγ2 subunit fusion from ATP-γ-Sepharose. […] The presence of eluted AMPKγ2 was analysed by SDS-PAGE and staining with colloidal Coomassie. […]

T1 sequence (Q9UGJ0 247-569): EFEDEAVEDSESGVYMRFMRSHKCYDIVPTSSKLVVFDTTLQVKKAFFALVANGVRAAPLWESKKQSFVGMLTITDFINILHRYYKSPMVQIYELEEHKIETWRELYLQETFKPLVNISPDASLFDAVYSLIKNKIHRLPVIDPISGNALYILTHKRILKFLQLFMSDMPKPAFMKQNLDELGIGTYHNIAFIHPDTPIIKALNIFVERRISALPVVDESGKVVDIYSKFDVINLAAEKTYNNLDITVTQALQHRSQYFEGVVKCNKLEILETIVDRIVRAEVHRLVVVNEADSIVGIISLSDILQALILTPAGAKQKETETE

Row | Structure (SMILES) | displacement from ATP-γ-Sepharose
1 | Nc1ncnc2c1ncn2[C@@H]1O[C@H](COP(=O)(O)O)[C@@H](O)[C@H]1O [AMP, reference compound] | displaced
2 | O=P(O)(O)c1ccc(-c2cc(O)on2)o1 [Compound C2, 5-(5-hydroxyl-isoxazol-3-yl)-furan-2-phosphonic acid] | displaced
